Source: patent US11185553B2, “Pharmaceutical composition for preventing or treating ischemic-reperfusion injury comprising bile acids” (priority 2016, dated 2021)

What was measured:
[1] = test system: reperfusion injury mouse model; experiment: Mouse myocardial necrosis in reperfusion injury model, Annexin-Vivo750 fluorescent dye; assay type: in vivo; settings: Annexin-Vivo750, FIG. 7B
Procedure: In order to confirm the inhibitory effect of deoxycholic acid among the bile acids on myocardial necrosis caused by reperfusion injury, the test was performed to confirm mouse myocardial necrosis using Annexin-Vivo750 fluorescent dye.
After 24 hours, Annexin-Vivo750 fluorescent dye was injected into the mouse model prepared in Example 3 to examine the effect of deoxycholic acid (1, 2, 5 mg/kg (mpk)) by the concentration. Annexin dyes are known to bind where apoptosis occurs and to show fluorescence.

[2] = test system: reperfusion injury mouse model; experiment: Reperfusion injury mouse model, TTC staining of infarcted heart tissue
[3] = test system: mitochondrial permeability transition pore (mPTP); experiment: TMRM staining of 293T cells after CCCP-induced mPTP opening; assay type: cell-based; settings: 1 μM and 10 μM, CCCP 50 μM, FIG. 3
beta-catenin = experiment: Nuclear beta-catenin luciferase assay in TCF/LEF reporter_HEK293 cell line; assay type: cell-based; settings: TCF/LEF reporter_HEK293, 1 μm or 10 μm, 24 hours, FIG. 1

Row | Structure (SMILES) | decrease of myocardial death compared to the control group with reperfusion surgery ([1]; 1 mpk) [%] | decrease of myocardial death compared to the control group with reperfusion surgery ([1]; 2 mpk) [%] | reduction of the infarcted area ([2]; 2 mg/kg, FIG. 6B) | concentration at which cells died ([2]; reperfusion injury mouse model) [mg/kg] | concentration at which the effect was shown ([2]; reperfusion injury mouse model) [mg/kg] | inhibition of mitochondrial injury [3] | beta-catenin levels in the nucleus (luciferase activity) (beta-catenin)
1 | C[C@H](CCC(=O)O)[C@H]1CC[C@H]2[C@@H]3CC[C@@H]4C[C@H](O)CC[C@]4(C)[C@H]3C[C@H](O)[C@]12C [deoxycholic acid] | ≥ 40 | ≥ 40 | about 50% | ≥ 10 | ≤ 2 | about 90% | –
2 | C[C@H](CCC(=O)O)[C@H]1CC[C@H]2[C@@H]3[C@H](O)C[C@@H]4C[C@H](O)CC[C@]4(C)[C@H]3C[C@H](O)[C@]12C [cholic acid] | – | – | – | – | – | about 90% | significantly increased
3 | C[C@H](CCC(=O)NCCS(=O)(=O)O)[C@H]1CC[C@H]2[C@@H]3[C@H](O)C[C@@H]4C[C@H](O)CC[C@]4(C)[C@H]3C[C@H](O)[C@]12C [TauroCA, taurocholic acid] | – | – | – | – | – | – | significantly increased
